# Measured values published in US4342775A, “3-(1-Imidazolyl)-derivatives of 2,3-dihydro-4H-1-benzopyran” (Farmitalia Carlo Erba S.p.A., priority 1980, dated 1982).
# Experiments:
# [1] = test system: Icem: CER (SPF Caw) male rats fed hypercholesterolaemic diet; test: Experiment No. 1: serum lipids in rats fed hypercholesterolaemic diet; format: in vivo, rat; conditions: 50 mg/kg/os for 4 days, *** p < 0.01
# Method: (§1) The activity of the compounds of the invention was evaluated on groups of Icem: CER (SPF Caw) male rats either fed for six days with hypercholesterolaemic diet according to C. E. Day [Schurr P. E., Schultz H. R., Day C. E. (Eds) Atherosclerosis and drug discovery--Plenum Pub. Corp., 217 (1976)] (Experiment No. 1) or fed standard diet Altromin (Experiment No. 2). "Altromin" is a trade mark.
# (§2) The compounds were suspended in "Methocel" (methyl cellulose, a 0.5% suspension in water) and administered by stomach tube at the dose of 50 mg/kg for 4 days.
# (§3) Groups of animals were treated with the suspending agent only (control groups).
# (§4) The total serum cholesterol was determined with the method of Trinder P. J. [J. Clin. Pathol., 22, 246 (1969)].
# (§5) The total serum HDL cholesterol was determined according to Demacker P. N. M. [Clin. Chem., 23, 1238, (1977)]. The total β-lipoprotein cholesterol was determined by difference between total serum cholesterol and HDL cholesterol.
# Statistical analysis in experiment No. 1 was performed by the Student's test for independent samples or by the Cochran's t test when the variances were not homogeneous at the F ratio test [Bliss C. I.--Statistics in Biology, Vol. 1, page 213--Mc Graw Hill Book Company, New York, 1967; Cochran W. G., Cox G. M.--Experimental designs--J. Wiley e Sons Inc., New York, II Ed. (1968) page 100].
# The Table 1 reports the values of serum total cholesterol and total HDL cholesterol and ratio between α and β lipoprotein total cholesterol from animals fed hypercholesterolaemic diet and treated with two compounds of the invention: 3-(1-imidazolyl)-2,3-dihydro-6-chloro-4H-1-benzopyran-4-one: compound A, and 3-(1-imidazolyl)-2,3-dihydro-6-chloro-4H-1-benzopyran-4-ol (trans isomer): compound B, in comparison with the values of the same variables in controls.
# [2] = test system: Icem: CER (SPF Caw) male rats fed standard diet Altromin; test: Experiment No. 2: serum lipids in rats fed standard diet Altromin; format: in vivo, rat; conditions: 50 mg/kg/os for 4 days; for Serum HDL total cholesterol, mean ± S.E.: ** p < 0.05; for Serum triglycerides, mean ± S.E. / Total serum cholesterol, mean ± S.E. / α/β lipoprotein total cholesterol, mean: *** p < 0.01
# Method: as §1, §2, §3, §4
# The serum triglycerides were determined with the method of Mendez J. [J. Clin. Chem., 21, 768, (1975)].
# as §5
# W.--J. Amer. Stat. Ass., 50, 1096 (1955)]. Taking in account the ratio between α and β lipoprotein cholesterol it was necessary to make the variances homogeneous by a transformation of the values (√x).
# [3] = test system: collagen-induced platelet aggregation; test: in vitro collagen-induced platelet aggregation in platelet rich plasma (method of Born); format: cell-based; conditions: final 25 mcg/ml; induced by 2 mcg/ml collagen; Guinea pig platelet rich plasma
# Method: The compounds of the invention are also endowed with blood platelet-antiaggregating activity. This activity was evaluated e.g. "in vitro" on the basis of the ability of the test compounds to inhibit the collagen-induced platelet aggregation in Guinea pig platelet rich plasma according to the method of Born "Born G.V.R.--Nature, […] (1962)].
Compound,"Serum HDL total cholesterol, mean ± S.E. [1] [mg/100 ml]","Total serum cholesterol, mean ± S.E. [1] [mg/100 ml]","α/β lipoprotein cholesterol, mean ± S.E. [1]","Serum HDL total cholesterol, mean ± S.E. [2] [mg/100 ml]","Serum triglycerides, mean ± S.E. [2] [mg/100 ml]","Total serum cholesterol, mean ± S.E. [2] [mg/100 ml]","α/β lipoprotein total cholesterol, mean [2]",inhibition of platelet aggregation [3]
"O[C@H]1c2cc(Cl)ccc2OC[C@@H]1n1ccnc1 (relative stereo) [Compound B, 3-(1-imidazolyl)-2,3-dihydro-6-chloro-4H-1-benzopyran-4-ol (trans isomer)]",47.6 ± 2.4,184.4 ± 19.7,0.3664 ± 0.055,50.3 ± 1.7,90.6 ± 6.1,72.4 ± 2.3,1.432,
"O=C1c2cc(Cl)ccc2OCC1n1ccnc1 (stereo not drawn) [Compound A, 3-(1-imidazolyl)-2,3-dihydro-6-chloro-4H-1-benzopyran-4-one]",44.3 ± 1.3,133.2 ± 10.1,0.548 ± 0.052,52.3 ± 2.5,77.2 ± 7.0,73.4 ± 3.0,1.450,inhibit wholly
